Laboratory results taken from US20260191933A1, “PHARMACEUTICAL COMBINATIONS AND USES THEREOF” (The University of Melbourne, priority 2022, published 2026).

Legend:
[1] = tested on: 12-week-HFHS-diet-fed obese mice; assay: Intranasal PZ6005 in obese mice: body weight, tissue-specific adiposity, fat mass; type: in vivo, C57BL/6J mice; conditions: for body weight lost at the end of the experiment: day 14
Procedure: Metabolic measurements were undertaken in the Melbourne Mouse Metabolic Phenotyping Platform (The University of Melbourne, Australia). Glucose tolerance tests were performed on 6 h fasted conscious mice respectively by injecting D-glucose (2 mg/g of lean body mass and 1 mg/g lean mass for db/db and HFHS+STZ mice) into the peritoneal cavity and measuring glucose in tail blood immediately before and at 15, 30, 45, 60, 90 and 120 min after injection using an Accu-Check glucometer (Roche, Germany). The areas under glucose excursion curves were determined and expressed as mmol/l×min. Fasted (12 h fast) plasma insulin or glucose levels were determined using a Rat/Mouse Insulin ELISA (EZRMI-13K, Merck Millipore, CA) or an Accu-Check glucometer respectively. The HOMA-IR was calculated using the equation [(glucose×insulin)/405]. Adiposity was measured using TD-NMR minispec (Bruker Optics Inc., Billerica, MA).

[2] = tested on: 12-week HFHS fed obese mice; assay: Example 21: glycaemic control in treatment and off-treatment phase (GTT, ITT, fasting glucose); type: in vivo, C57BL/6J male mice; conditions: treatment phase
Description: Under 2-5% (v/v) isoflurane in 1 L/min oxygen, 12-week-HFHS-diet-fed and aged-matched chow-fed C57BL/6J male mice were implanted stereotaxically with guide cannulas in the right lateral ventricle (measurement of the coordinates were described as Chapter 2; Anterior/Posterior: −1.00 mm, Medial/Lateral: +0.20 mm). Guide cannulas were made by polishing the shaft of hypodermic needles (19 Gauge, Livingstone, Australia) to 1.00 mm long. The tip of the guide cannula was positioned 1.00 mm above the target region (1.00 mm ventral to the surface of the mouse skull). The mice were allowed 2-3 days for recovery before further experimental manipulations.
Awake 12-week-HFHS-diet-fed and aged-matched chow-fed C57BL/6J male mice were restrained by scruffing and inverted in the head-down position. […]
Glucose tolerance test was conducted on 6-hrs fasted conscious mice by injecting D-glucose (2 mg/g of lean body mass) into the peritoneal cavity and measuring blood glucose levels by taking tail blood immediately at 0, 15, 30, 60, 90 and 120 mins after injection using an Accu-Check glucometer (Roche, Germany). The area under the glucose excursion curve was determined and represented as mmol/L×min. Fasted (24 hr fast) glucose level was measured using an Accu-Check glucometer. […]

[3] = intranasal 1 mg treatment, 14 days

## CC(=O)NC1C(OC(C)=O)OC(COC(C)=O)[C@@H](F)C1OC(C)=O (stereo partly shown) [PZ6005, per-O-acetylated-4-F-N-acetylglucosamine]
[1]; diet-induced obese mice, intranasal 14 days
  whole-body metabolic improvements observed with intracerebroventricular delivery: recapitulated
[1]; [3]
  mass of epiWAT, BAT and liver: decreased
  post-treatment fat mass decreased by, compared to the pre-treatment mass: 12.59±2.29%
[1]; intranasal 1 mg treatment
  body weight lost at the end of the experiment: 16.32±1.41%
[1]; intranasal 1 mg/animal/day
  day from which weight was robustly decreased: 7 days
[1]; intranasal 5 mg treatment, 14 days
  post-treatment fat mass diminished by, compared to the pre-treatment mass: 23.21±9.27%
[1]; intranasal 5 mg/animal/day
  day from which weight was robustly decreased: 3 days
[1]; intranasal highest dose (5 mg)
  body weight lost at the end of the experiment: 6.36±0.88%
[1]; intranasal highest dose, 14 days
  tissue mass: remarkedly reduced
[2]
  glucose tolerance / glycaemic regulation: improved glucose tolerance
